In BigSolDB 2.1:

C[C@@H]1O[C@@H](O[C@H]2[C@H](Oc3cc(O)c4c(c3)O[C@H](c3ccc(O)cc3)CC4=O)O[C@H](CO)[C@@H](O)[C@@H]2O)[C@H](O)[C@H](O)[C@H]1O
solubility (mole fraction)
Conditions	283.15 K	288.15 K	293.15 K	298.15 K	303.15 K	308.15 K	313.15 K	318.15 K
in ethanol	2.26e-05	2.57e-05	3.45e-05	4.05e-05	5.17e-05	6.25e-05	7.96e-05	0.000102
in water	6.21e-07	7.14e-07	9.76e-07	2.87e-06	6.15e-06	1.1e-05	1.55e-05	2.32e-05
